The values below come from ChEMBL document CHEMBL1136339, “The C-4 stereochemistry of leucocyanidin substrates for anthocyanidin synthase affects product selectivity” (2003).

A short description of assay [1]: Specific activity of 14CO2 formation from 1-[14C]-2OG in presence of anthocyanin synthase(ANS). Type of assay: functional.
The nature of assay [2]: Specific activity of 14CO2 formation from 1-[14C]-2OG corrected for uncoupled turnover in presence of anthocyanin synthase(ANS). In kind it is functional.

As for `Oc1cc(O)c2c(c1)O[C@H](c1ccc(O)c(O)c1)[C@@H](O)[C@H]2O`, the results for the Specific activity in assay [1] and in assay [2] were 181.5 ukat kg-1 and 138 ukat kg-1, respectively.

`Oc1cc(O)c2c(c1)O[C@H](c1ccc(O)c(O)c1)[C@@H](O)[C@@H]2O`: the values for the Specific activity in assay [1] and in assay [2] were 385 ukat kg-1 and 342 ukat kg-1, respectively.

As to `Oc1cc(O)c2c(c1)O[C@@H](c1ccc(O)c(O)c1)[C@H](O)[C@@H]2O.Oc1cc(O)c2c(c1)O[C@H](c1ccc(O)c(O)c1)[C@@H](O)[C@H]2O` (racemic), the Specific activity worked out at 84.1 ukat kg-1 in assay [1] and 41 ukat kg-1 in assay [2].

For `Oc1cc(O)c2c(c1)O[C@@H](c1ccc(O)c(O)c1)[C@H](O)[C@H]2O.Oc1cc(O)c2c(c1)O[C@H](c1ccc(O)c(O)c1)[C@@H](O)[C@@H]2O` (racemic), the Specific activity in assay [1] is recorded as 188.4 ukat kg-1; in assay [2], 145 ukat kg-1.
